Results as given in patent publication US7745465B2, “Method of enhancing cellular production of molecular chaperone, hydroxylamine derivatives useful for enhancing the chaperone production and the preparation thereof” (CytRx Corporation, priority 1995, dated 2010).

System: HSP72
Experiment: Heat stress induced HSP72 production in 3T3 cells
Format: cell-based, mouse
Details: 10^−5 M
Protocol: From the applied cells the 3T3 and L-929 mouse fibroblasts were cultured in MEM medium and grew in monolayer, the U-937 human leukemia cells were maintained in RPMI-1640 medium, in suspension culture, while the HeLa human epithelial cells were cultured in DMEM medium and in monolayer form. Cell cultures were maintained as described in example 6.2 (a) with the difference that cells were cultured in the above mentioned culture mediums.
Experiments were carried out applying stress before and after the drug treatment. Stress was provoked by heat, by chemical agent, HgCl2 treatment. The test compounds were applied in the treatments at the 10^−5 M concentration.
The experiments on 3T3 cell applying heat stress were performed as described in the 6.2. (c) point of example 6, with the difference that stress was induced by a 30 min. exposure at 43° C. temperature and treatment with the test compounds was performed 15 min. before or 100 min. after the heat stress.
Immunodetection was carried out using the HSP72 specific SPA 810 (StressGene) primary and the horse-radish peroxidase conjugated A9044 (Sigma) secondary antibodies. Densitometric evaluation was performed by a LKB Ultrascan XL densitometer.

[1] = treatment 15 min. before 30 min. 43° C. heat stress

Compound	HSP72 level relative to the stress exposed control [1]	HSP72 level relative to the stress exposed control (treatment 100 min. after 30 min. 43° C. heat stress)
CN(OCCCN1CCCCC1)C(=O)c1cccc(C(F)(F)F)c1.Cl [N-methyl-N-[3-(1-piperidinyl)-propoxy]-m-trifluoromethyl-benzamide hydrochloride]	+++ (>100%)	
N-[2-hydroxy-3-(1-piperidinyl)-propoxy]-benzylurethane	0 (0 indicates that the treatment altered by ±20% the stress induced hsp72 level in the cells)	
O=C(O)/C=C\C(=O)O.OC(CON=C(Cl)c1cccnc1)CN1CCCCC1 (single isomer, unassigned; (-)) [(−)N-[2-hydroxy-3-(1-piperidinyl)-propoxy]-3-pyridine-carboximidoyl-chloride-(Z)-2-butenedioate(1:1)]	+++ (>100%)	
Cl.Cl.N=C(NOCC(O)CN1CCCCC1)c1cnc2ccccc2c1 (stereo not shown) [Example 42]	+++ (>100%)	+++ (>100%)
N-(2-hydroxy-3-piperidino-propoxy)-ethylurethane	+ (21-50%)	
CN(C)C(=NOCCCN1CCCCC1)Nc1ccccc1.Cl [N,N-dimethyl-N′-phenyl-N″-[3-(1-piperidinyl)-propoxy]-guanidine hydrochloride]	++ (51-100%)	
CC(=O)OC(CONC(=O)NC1CCCCC1)CN1CCCCC1.Cl (stereo not shown) [N-cyclohexyl-N′-[2-acetoxy-3-(1-piperidinyl)-propoxy]-urea hydrochloride]	0 (0 indicates that the treatment altered by ±20% the stress induced hsp72 level in the cells)	
Cl.c1cncc(C(=NOCCCN2CCCCC2)N2CCCC2)c1 [N-[3-(I-piperidinyl)-propoxy]-N′-tetramethylene-3-pyridine-carboxamidine hydrochloride]	+++ (>100%)	
Cl.OC(CON(C(=Nc1ccccc1)c1ccccc1)c1ccccc1)CN1CCCCC1 (stereo not shown) [Example 73]	0 (0 indicates that the treatment altered by ±20% the stress induced hsp72 level in the cells)	
Cl.c1ccc(C2=NOCC(CN3CCCCC3)O2)cc1 (stereo not shown) [3-phenyl-5-[(1-piperidinyl)-methyl]-5,6-dihydro-6H-1,4,2-dioxazine hydrochloride]	++ (51-100%)	
CN(C)C(=Nc1ccccc1)NOCC(O)CN1CCCCC1.Cl (stereo not shown) [Example 71, N,N-dimethyl-N′-[2-hydroxy-3-(1-piperidinyl)-propoxy]-N″-phenyl-guanidine hydrochloride]	0 (0 indicates that the treatment altered by ±20% the stress induced hsp72 level in the cells)	
O=C(O)/C=C\C(=O)O.c1cncc(C2=NOCC(CN3CCCCC3)O2)c1 (stereo not shown) [3-(3-piridyl)-5-[(1-piperidinyl)-methyl]-5,6-dihydro-6H-1,4,2-dioxazine-(Z)-2-butenedioate(1:1)]	++ (51-100%)	
COC(=NOCCCN1CCCCC1)c1cccnc1.O=C(O)/C=C\C(=O)O [Methyl-{N-[3-(1-piperidinyl)-propoxy]}-3-pyridine-carboximidate maleate]	0 (0 indicates that the treatment altered by ±20% the stress induced hsp72 level in the cells)	
CCCCCCNC(=O)N(C)OCCCN1CCCCC1 [N-[3-(I-piperidinyl)-propoxy]-N-methyl-N′-(n-hexyl)-urea]	0 (0 indicates that the treatment altered by ±20% the stress induced hsp72 level in the cells)	
CCCNC(=O)NOCC(O)CN1CCCCC1 (stereo not shown) [Example 56, N-[2-hydroxy-3-(1-piperidinyl)propoxy]-N′-propyl-urea]	+++ (>100%)	
